Laboratory results published in patent US11439657B2, “Cancer stem cell growth inhibitor using miRNA” (CancerStem Tech Inc., priority 2017, dated 2022).

How the values were obtained:
[1] = system: human large bowel cancer cells (HT29 line); experiment: Drug sensitivity in combination with oxaliplatin (cell viability); assay type: cell-based; details: miRNA 50 nM, oxaliplatin 0-128 μM for 72 hours, compared to only oxaliplatin and to control plus oxaliplatin, FIG. 16
Protocol: A cell suspension prepared by suspending human large bowel cancer cells (HT29 line) in RPMI medium was seeded in each well of a 6-well plate at 3×10^5 cells/well, and a mixture of lipofectamin RNAiMAX Regent (final concentration in well: 0.03 μL/well) and hsa-miR-3065-3p (final concentration in well: 50 nM) was further added, followed by culture for 1 day. Then, cells were recovered and suspended in RPMI medium, and were seeded in each well of a 96-well plate at 3×10^3 cells/well, followed by culture for 2 days. Thereafter, oxaliplatin was added to each well at 0, 2, 4, 8, 16, 32, 64 or 128 μM, followed by additional culture for 72 hours. After culture, living cells in each well were counted by GloMax-Multi Detection System (Promega Corporation). When the number of living cells under a condition where oxaliplatin was not added was 100%, the ratio of the number of living cells under each condition (cell viability, %) was determined. In addition, tests were also performed under the same condition on a case where a control miRNA (SEQ ID NO: 9) was used (control miRNA, negative control) in place of hsa-miR-3065-3p, and on a case where no miRNA was added.

[2] = system: human large bowel cancer cells (DLD1 line and HT29 line); experiment: Colony formation assay; assay type: cell-based; details: DLD1 and HT29 lines; 50 nM; culture for 10 days; versus control miRNA; FIG. 14
Protocol: A cell suspension prepared by suspending human large bowel cancer cells (DLD1 line and HT29 line) in RPMI medium (containing 10% by volume FBS) was seeded in each well of a 6-well plate at 3×10^5 cells/well, followed by culture for 2 days. Then, the medium was changed to RPMI medium (containing no FBS), and a mixture of lipofectamin RNAiMAX Regent (final concentration in each well: 0.03 μL/ml) and hsa-miR-3065-3p (final concentration in each well: 50 nM) was added for transfection, followed by culture for 8 hours. Then, cells after transfection were recovered and suspended in RPMI medium (containing 10% by volume FBS), and were seeded in each well of a 6-well plate at 500 cells/well, followed by culture for 10 days. Thereafter, the culture supernatant was removed, and cells were fixed with methanol and then stained with crystal violet to count the formed colonies. In addition, tests were also performed under the same condition on a case where a control miRNA (SEQ ID NO: 9) was used (control miRNA, negative control) in place of hsa-miR-3065-3p.

**Q.** What does the source list for “hsa-miR-3065-3p: human-derived miR-3065-3p; base sequence set forth in SEQ ID NO: 2 as mature miRNA (UCAGCACCAGGAUAUUGUUGGAG; listed as RNA, chemistry not given here; listed as Homo sapiens)”?
**A.** number of living cells (cell viability) on treatment with both hsa-miR-3065-3p and oxaliplatin [1]: significantly reduce the number of living cells; colony forming ability of human large bowel cancer cells [2]: able to inhibit the colony forming ability
